Measurements reported in patent US11952344B2, “Heterocyclic compound and use thereof” (TAKEDA PHARMACEUTICAL COMPANY LIMITED, priority 2019, dated 2024).

Each molecule was assayed against T1, Human NMDA (NR1/NR2B) Receptor (Homo sapiens, UniProt Q13224) (assay: NR2B Ca2+ influx assay). Conditions: 10 μM compound; HEK293 cells expressing GRIN1 and GRIN2B; glutamic acid/glycine-induced Ca2+ influx, Fluo-4 fluorescence; read-out: inhibitory rate (10 μM compound concentration).
T1 construct: host or cells: HEK293
T1 sequence (Q13224 27-1484, other chains not shown): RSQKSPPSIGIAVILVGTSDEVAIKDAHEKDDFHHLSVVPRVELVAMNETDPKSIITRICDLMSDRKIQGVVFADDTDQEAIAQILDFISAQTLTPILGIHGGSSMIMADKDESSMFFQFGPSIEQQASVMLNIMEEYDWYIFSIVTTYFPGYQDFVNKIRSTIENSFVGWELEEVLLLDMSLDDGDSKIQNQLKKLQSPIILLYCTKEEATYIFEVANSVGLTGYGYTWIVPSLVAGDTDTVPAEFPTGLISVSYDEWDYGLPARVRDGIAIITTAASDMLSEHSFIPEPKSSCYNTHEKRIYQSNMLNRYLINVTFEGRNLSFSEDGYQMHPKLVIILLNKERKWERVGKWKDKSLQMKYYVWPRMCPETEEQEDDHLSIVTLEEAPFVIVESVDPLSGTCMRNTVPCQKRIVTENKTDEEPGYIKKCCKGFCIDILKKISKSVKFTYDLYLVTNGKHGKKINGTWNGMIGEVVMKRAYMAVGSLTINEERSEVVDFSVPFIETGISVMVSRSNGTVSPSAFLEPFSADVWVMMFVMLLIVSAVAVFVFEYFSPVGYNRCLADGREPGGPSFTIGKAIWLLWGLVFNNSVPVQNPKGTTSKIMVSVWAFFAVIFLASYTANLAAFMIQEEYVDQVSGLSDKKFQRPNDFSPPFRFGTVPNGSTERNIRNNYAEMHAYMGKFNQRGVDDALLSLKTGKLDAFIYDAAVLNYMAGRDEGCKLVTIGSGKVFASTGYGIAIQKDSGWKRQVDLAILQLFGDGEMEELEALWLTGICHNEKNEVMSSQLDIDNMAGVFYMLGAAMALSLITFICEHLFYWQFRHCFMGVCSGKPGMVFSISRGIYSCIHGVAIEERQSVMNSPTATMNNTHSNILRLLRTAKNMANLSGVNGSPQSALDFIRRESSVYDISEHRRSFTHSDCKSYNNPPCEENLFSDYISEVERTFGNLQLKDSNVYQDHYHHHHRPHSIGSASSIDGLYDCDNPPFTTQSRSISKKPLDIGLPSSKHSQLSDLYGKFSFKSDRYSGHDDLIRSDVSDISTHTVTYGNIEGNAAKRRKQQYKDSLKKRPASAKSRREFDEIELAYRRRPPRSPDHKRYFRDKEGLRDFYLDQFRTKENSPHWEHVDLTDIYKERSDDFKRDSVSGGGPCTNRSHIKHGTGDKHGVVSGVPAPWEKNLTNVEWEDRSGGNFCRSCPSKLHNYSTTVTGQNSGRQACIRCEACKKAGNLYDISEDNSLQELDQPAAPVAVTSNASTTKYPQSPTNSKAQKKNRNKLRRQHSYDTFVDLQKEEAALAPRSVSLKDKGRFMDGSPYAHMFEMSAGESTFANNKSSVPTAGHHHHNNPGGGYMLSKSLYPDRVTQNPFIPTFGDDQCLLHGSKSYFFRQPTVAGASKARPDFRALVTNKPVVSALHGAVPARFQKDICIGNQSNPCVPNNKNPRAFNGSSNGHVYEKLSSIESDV
Format: cell-based
Text: Experimental Example 1 NR2B Ca^2+ Influx Assay
To confirm the “antagonistic action on an NMDA receptor containing the NR2B subunit” of the compound of the present invention, human embryonic kidney cell expressing the “NMDA receptor composed of four subunits including 2 sets of heterodimers of NR1 and NR2B”, specifically HEK293 cell expressing human glutamate ionotropic receptor NMDA type subunit 1 (GRIN1) and human glutamate ionotropic receptor NMDA type subunit 2B (GRIN2B), was used and the activation suppressive effect (inhibitory activity) on the receptors by the compound of the present invention was measured.
HEK293 cells that express GRIN1 and GRIN2B were purchased from ChanTest (Human NMDA (NR1/NR2B) Receptor-expressing, stable replicating cell line (HEK293) catalog No. CT6121).
As an index of the NMDA receptor activation, intracellular calcium ion (Ca^2+) influx caused by the binding of glycine and glutamic acid with NR1 and NR2B, respectively, was used.
HEK293 cells that express GRIN1 and GRIN2B were cultured in a cell culture flask in DMEM/F-12 (COSMO BIO, 10-092-CM) medium added with 10% FBS (fetal bovine serum, AusGene), 100 units/mL penicillin, 100 μg/mL streptomycin, 500 μg/mL neomycin, 100 μg/mL Zeocin (registered trade mark, Invitrogen), 5 μg/mL Blasticidin, in an incubator (37° C., 5% CO2).
The cells were detached from flask with trypsin the day before the assay, suspended in a seeding medium (DMEM (Invitrogen, 31053) added with 10% FBS, 100 units/mL penicillin, 100 μg/mL streptomycin) at 8×10^5 cells/mL, seeded by 25 μL/well in a 384-well plate (Falcon, 356663) at 20000 cells/well, and cultured overnight in an incubator. On the day of the assay, tetracycline (Wako Pure Chemical Industries, Ltd., 209-16561) was diluted with the seeding medium at 2 μg/mL, added at 25 μL/well to the plate seeded with the cells, and cultured for 2 hr in an incubator. Thereafter, the medium was removed, and the cells were washed with 50 μL/well assay buffer (137 mM NaCl, 4 mM KCl, 1.8 mM CaCl2, 10 mM HEPES (pH 7.2), 10 mM Glucose, 0.1% BSA). Then, a loading buffer (assay buffer added with 2.5 μM Fluo-4AM, 2 mM Amaranth, 1 mM Tartrazine) was added at 25 μL/well, and incubation was performed in the incubator for 30 min, and at room temperature for 15 min. A solution (25 μL/well) of the Example compound diluted with the above-mentioned assay buffer at 30 μM (final concentration 10 μM) was added, and the cells were stood for 15 min at room temperature. Using FDSS7000EX/μCELL (Hamamatsu Photonics K.K.), 25 μL/well of an assay buffer containing 30 μM glutamic acid, 30 μM glycine was added, and the fluorescence signal at wavelength of Excitation 480 nm, Emission 540 nm was measured every 3 seconds for 5 min. The inhibitory activity was calculated as a relative activity value (inhibitory rate) that inhibits 100% of the cumulative value of the fluorescence value of a well added with an assay buffer free of glutamic acid, glycine, relative to the cumulative value of the fluorescence value of each well.
In the case of `Cc1ccncc1CNC(=O)c1cnc(OC(F)F)c(F)c1` [Example 18, 6-(difluoromethoxy)-5-fluoro-N-[(4-methylpyridin-3-yl)methyl]pyridine-3-carboxamide], the inhibition at 10 µM was 96%.
Molecule `COc1ncncc1CNC(=O)c1cnc(OC(F)F)c(Cl)c1` [Example 21, 5-chloro-6-(difluoromethoxy)-N-[(4-methoxypyrimidin-5-yl)methyl]pyridine-3-carboxamide] has an inhibition at 10 µM of 93%.
Work on `COc1ccncc1CNC(=O)c1cnc(OC(F)F)c(F)c1` [Example 5, 6-(difluoromethoxy)-5-fluoro-N-[(4-methoxypyridin-3-yl)methyl]pyridine-3-carboxamide] yielded an inhibition at 10 µM of 94%.
`COc1c(F)cc(C(=O)NCc2cncc(F)c2OC)cc1F` [Example 90, 3,5-difluoro-N-[(5-fluoro-4-methoxypyridin-3-yl)methyl]-4-methoxybenzamide] showed an inhibition at 10 µM of 95%.
In the case of `O=C(NCc1cncnc1C1CC1)c1cnc(OC(F)F)c(F)c1` [Example 23, N-[(4-cyclopropylpyrimidin-5-yl)methyl]-6-(difluoromethoxy)-5-fluoropyridine-3-carboxamide], the inhibition at 10 µM was 95%.
Work on `COc1ncncc1CNC(=O)c1cnc(C2CC2)c(Cl)c1` [Example 83, 5-chloro-6-cyclopropyl-N-[(4-methoxypyrimidin-5-yl)methyl]pyridine-3-carboxamide] yielded an inhibition at 10 µM of 92%.
`Cc1ccncc1CNC(=O)c1ccc(C(F)(F)F)c(Cl)c1` [Example 54, 3-chloro-N-[(4-methylpyridin-3-yl)methyl]-4-(trifluoromethyl)-benzamide] was tested, and the inhibition at 10 µM was 94%.
`COc1ncncc1CNC(=O)c1cnc(C(C)(F)F)c(F)c1` [Example 92, 6-(1,1-difluoroethyl)-5-fluoro-N-[(4-methoxypyrimidin-5-yl)methyl]pyridine-3-carboxamide] showed an inhibition at 10 µM of 86%.
`COc1ccncc1CNC(=O)c1ccc(C(F)(F)F)c(F)c1` [Example 9, 3-fluoro-N-[(4-methoxypyridin-3-yl)methyl]-4-(trifluoromethyl)benzamide] showed an inhibition at 10 µM of 90%.
For `Cc1ccncc1CNC(=O)c1cnc(OC(F)(F)F)c(F)c1` [Example 35, 5-fluoro-N-[(4-methylpyridin-3-yl)methyl]-6-(trifluoromethoxy)-pyridine-3-carboxamide], the inhibition at 10 µM was 96%.
In the case of `CCOc1ccncc1CNC(=O)c1ccc(OC(F)F)c(F)c1` [Example 11, 4-(difluoromethoxy)-N-[(4-ethoxypyridin-3-yl)methyl]-3-fluorobenzamide], the inhibition at 10 µM was 95%.
For `O=C(NCc1cnccc1OC(F)F)c1ccc(OC(F)(F)F)c(F)c1` [Example 112, N-[(4-(difluoromethoxy)-pyridin-3-yl)methyl]-3-fluoro-4-(trifluoromethoxy)-benzamide], the inhibition at 10 µM was 96%.
In the case of `COc1cncc(CNC(=O)c2ccc(OC(F)(F)F)cc2)c1` [Example 1, N-[(5-methoxypyridin-3-yl)methyl]-4-(trifluoromethoxy)benzamide], the inhibition at 10 µM was 95%.
`Cc1ncncc1CNC(=O)c1ccc(OC(F)(F)F)c(F)c1` [Example 30, 3-fluoro-N-[(4-methylpyrimidin-5-yl)methyl]-4-(trifluoromethoxy)-benzamide] was tested, and the inhibition at 10 µM was 92%.
`CCOc1ncncc1CNC(=O)c1cnc(OC(F)F)c(Cl)c1` [Example 88, 5-chloro-6-(difluoromethoxy)-N-[(4-ethoxypyrimidin-5-yl)methyl]pyridine-3-carboxamide] was tested, and the inhibition at 10 µM was 92%.
For `COc1ncncc1CNC(=O)c1cnc(C(C)(F)F)c(Cl)c1` [Example 96, 5-chloro-6-(1,1-difluoroethyl)-N-[(4-methoxypyrimidin-5-yl)methyl]pyridine-3-carboxamide], the inhibition at 10 µM was 85%.
Molecule `COc1ncncc1CNC(=O)c1csc(C2CC2)c1` [Example 79, 5-cyclopropyl-N-[(4-methoxypyrimidin-5-yl)methyl]thiophene-3-carboxamide] has an inhibition at 10 µM of 89%.
With `COc1c(F)cc(C(=O)NCc2cnccc2C)cc1F` [Example 71, 3,5-difluoro-4-methoxy-N-[(4-methylpyridin-3-yl)methyl]benzamide] the inhibition at 10 µM was 91%.
`O=C(NCc1cncnc1OC1CC1)c1cnc(OC(F)F)c(F)c1` [Example 19, N-{[4-(cyclopropyloxy)pyrimidin-5-yl]methyl}-6-(difluoromethoxy)-5-fluoropyridine-3-carboxamide] showed an inhibition at 10 µM of 91%.
`COc1c(F)cncc1CNC(=O)c1cnc(OC(F)F)c(F)c1` [Example 6, 6-(difluoromethoxy)-5-fluoro-N-[(5-fluoro-4-methoxypyridin-3-yl)methyl]pyridine-3-carboxamide] gave an inhibition at 10 µM of 95%.
With `COc1ccncc1CNC(=O)c1cc(F)c(OC)c(F)c1` [Example 89, 3,5-difluoro-4-methoxy-N-[(4-methoxypyridin-3-yl)methyl]benzamide] the inhibition at 10 µM was 92%.
With `CCOc1ncncc1CNC(=O)c1cc(F)c(OC)c(F)c1` [Example 86, N-[(4-ethoxypyrimidin-5-yl)methyl]-3,5-difluoro-4-methoxybenzamide] the inhibition at 10 µM was 90%.
With `CCc1c(F)cncc1CNC(=O)c1cnc(OC(F)F)c(F)c1` [Example 41, 6-(difluoromethoxy)-N-[(4-ethyl-5-fluoropyridin-3-yl)methyl]-5-fluoropyridine-3-carboxamide] the inhibition at 10 µM was 94%.
`Cc1ccncc1CNC(=O)c1cnc(C(F)(F)F)c(Cl)c1` [Example 52, 5-chloro-N-[(4-methylpyridin-3-yl)methyl]-6-(trifluoromethyl)pyridine-3-carboxamide] was tested, and the inhibition at 10 µM was 83%.
`O=C(NCc1cncnc1OC1CC1)c1ccc(OC(F)F)c(F)c1` [Example 77, N-{[4-(cyclopropyloxy)-pyrimidin-5-yl]methyl}-4-(difluoromethoxy)-3-fluorobenzamide] showed an inhibition at 10 µM of 94%.
Molecule `Cc1ccncc1CNC(=O)c1csc(C(F)F)c1` [Example 100, 5-(difluoromethyl)-N-[(4-methylpyridin-3-yl)methyl]thiophene-3-carboxamide] has an inhibition at 10 µM of 72%.
In the case of `Cc1ccncc1CNC(=O)c1ccc(OC(F)F)c(F)c1` [Example 48, 4-(difluoromethoxy)-3-fluoro-N-[(4-methylpyridin-3-yl)methyl]benzamide], the inhibition at 10 µM was 88%.
`O=C(NCc1cncnc1C1CC(F)(F)C1)c1cnc(OC(F)F)c(F)c1` [Example 36, N-{[4-(3,3-difluorocyclobutyl)-pyrimidin-5-yl]methyl}-6-(difluoromethoxy)-5-fluoropyridine-3-carboxamide] gave an inhibition at 10 µM of 92%.
`COc1ncncc1CNC(=O)c1ccc(OC(F)F)c(F)c1` [Example 13, 4-(difluoromethoxy)-3-fluoro-N-[(4-methoxypyrimidin-5-yl)methyl]benzamide] was tested, and the inhibition at 10 µM was 93%.
`COc1ncc(C(=O)NCc2cnccc2C)cc1F` [Example 44, 5-fluoro-6-methoxy-N-[(4-methylpyridin-3-yl)methyl]pyridine-3-carboxamide] gave an inhibition at 10 µM of 79%.
Molecule `O=C(NCc1cncc(F)c1OC1CC1)c1cnc(OC(F)F)c(F)c1` [Example 39, N-{[4-(cyclopropyloxy)-5-fluoropyridin-3-yl]methyl}-6-(difluoromethoxy)-5-fluoropyridine-3-carboxamide] has an inhibition at 10 µM of 97%.
`O=C(NCc1cnccc1C(F)(F)F)c1cnc(OC(F)F)c(F)c1` [Example 16, 6-(difluoromethoxy)-5-fluoro-N-{[4-(trifluoromethyl)pyridin-3-yl]methyl}pyridine-3-carboxamide] gave an inhibition at 10 µM of 94%.
In the case of `Cc1ncncc1CNC(=O)c1cnc(OC(F)F)c(F)c1` [Example 31, 6-(difluoromethoxy)-5-fluoro-N-[(4-methylpyrimidin-5-yl)methyl]pyridine-3-carboxamide], the inhibition at 10 µM was 68%.
`O=C(NCc1cncnc1OC1CC1)c1cnc(C2CC2)c(F)c1` [Example 81, 6-cyclopropyl-N-{[4-(cyclopropyloxy)-pyrimidin-5-yl]methyl}-5-fluoropyridine-3-carboxamide] showed an inhibition at 10 µM of 90%.
